According to patent US20240190871A1, “KRASG12D INHIBITOR, PREPARATION METHOD THEREFOR AND APPLICATION THEREOF” (YA THERAPEUTICS INC, priority 2021, published 2024):

Tests used:
KRAS-G2D/SOS1 = KRAS-G2D/SOS1 (Homo sapiens, UniProt P01116, G12D); test: KRAS-G2D/SOS1 binding experiment (HTRF); conditions: His-tagged G12D protein and Tag1-SOS protein, room temperature
Method: • A) Dilute Tagged-His Tag G12D protein and Tag1-SOS protein with diluent at 1:100, and use detection buffer for anti-Tag1-Tb3+ antibody and anti-Tag2-XL665 at 1:100 or 1:25, respectively Dilute. • B) Dilute the compound to be tested with diluent starting from […] concentration, 4 times gradient, a total of 6 concentration gradients, and dilute to 10× stock solution. • C) In a 96-well plate, add 4 uL Tagged-His Tag G12D protein, 4 uL Tag1-SOS protein, 2 ul dilution solution (positive control) or test compound (different concentrations of 10× stock solution) to each well in sequence, a total of 10 ul, and incubate at room temperature for […], add pre-mixed 5 uL anti-Tag1-Tb3+ and 5 uL anti-Tag2-xL665, seal the plate, incubate at room temperature for 2 hours, and read the HTRF signal with a TECAN INFINITEF NANO+ microplate reader.
The ratio of […] and donor excitation signals for each single well was calculated using the formula ratio=665 nm signal value/620 nm signal value×[…]. Data were processed using Graphpadprism5 software. IC50 values were calculated by sigmoidal dose-response curve fitting.

[1] = test system: ATCC CRL-1739 (KRASG^12D mutant) cells; test: Tumor cell proliferation inhibition experiment (Cell Titer-Glo, 72 hours); assay type: cell-based; conditions: 72 hours incubation, 10% fetal bovine serum, ATP content
Method: The ATCC CRL-1739 (KRASG^12D mutant) cells were digested, centrifuged and resuspended, and the cell density was measured with a Scepter automatic cell counter. The cells were diluted to a solution containing 44,000 cells per milliliter, and the density-adjusted cell solution was 90 per well. Microliters were added to a 96-well culture plate. The 96-well plate was placed in a 37° C., 5% CO2 incubator. After the cells were cultured for 24 hours, different concentrations of the compounds to be tested were added. The cells were incubated with the compounds for 72 hours in the presence of 10% fetal bovine serum. Glo Luminescent Cell Viability Assay Kit (see manufacturer's instructions for details) was used to measure ATP content to assess cell growth inhibition. Briefly, 30 μl of Cell Titer-Glo reagent was added to each well, and the plate was shaken for 10 minutes to induce cell lysis. FluoroskanAscentFL (Thermo) assay records the […], and the maximum signal value is obtained from cells treated with DMSO for 72 hours. The minimum signal value was obtained from the medium alone (the number of cells was zero), and the % inhibition rate=(the maximum signal value compound signal value)/(the maximum signal value−the minimum signal value×100%, and the data were processed using Graphpadprism 5 software. By sigmoid Dose-response curve fitting to calculate IC50 value. “A” means IC50≤50 nM; “B” means 50<IC50≤500 nM; “C” means 500<IC50≤2000 nM; “D” means 2000<IC50

Chain of KRAS-G2D/SOS1 (P01116 1-188 isoform P01116-2 G12D): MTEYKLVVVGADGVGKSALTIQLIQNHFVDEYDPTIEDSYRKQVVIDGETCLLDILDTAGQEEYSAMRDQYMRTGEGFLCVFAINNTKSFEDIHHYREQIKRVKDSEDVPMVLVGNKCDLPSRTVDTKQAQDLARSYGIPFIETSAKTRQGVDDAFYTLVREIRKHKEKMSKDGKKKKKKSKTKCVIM

Structure (SMILES)	IC50 (KRAS-G2D/SOS1) [nM]	IC50 [1] [nM]
C[C@@H]1CNCCN1c1nc(NCCN(C)C)nc2nc(-c3c(O)cccc3F)c(F)cc12 [Compound 1, 2-(2-((2-(dimethylamino)ethyl)amino)-6-fluoro-4-((R)-2-methylpiperazin-1-yl)pyrido[2,3-d]pyrimidin-7-yl)-3-fluorophenol]	> 500	> 2000
Oc1cc(-c2nc3nc(OC[C@@]45CCCN4C[C@H](F)C5)nc(N4C5CNCC4C5)c3cc2F)c2c(F)cccc2c1 [Compound 54, 4-(4-(3,6-diazabicyclo [3.1.1]heptan-6-y1)-6-fluoro-2-(((2R,7aS)-2-fluorohexahydro-1H-pyrrolizin-7a-yl)methoxy)pyrido[2,3-d]pyrimidin-7-y1)-5-fluoronaphthalen-2-ol]	≤ 50	≤ 50
Oc1cc(-c2nc3nc(OC[C@@]45CCCN4C[C@H](F)C5)cc(N4C[C@H]5CC[C@@H](C4)N5)c3cc2F)c2c(F)cccc2c1 [Compound 57, 4-(5-((1R,5S)-3,8-diazabicyclo[3.2.1]octan-3-yl)-3-fluoro-7-(((2R,7aS)-2-fluorohexahydro-1H-pyrrolizin-7a-yl)methoxy)-1,8-naphthyridin-2-yl)-5-fluoronaphthalen-2-ol]	≤ 50	≤ 50
C#Cc1c(F)ccc2cc(O)cc(-c3nc4nc(OC[C@@]56CCCN5C[C@H](F)C6)nc(N5C[C@H]6CC[C@@H](C5)N6)c4cc3F)c12 [Compound 58, 4-(4-((1R,5S)-3,8-diazabicyclo[3.2.1]octan-3-yl)-6-fluoro-2-(((2R,7aS)-2-fluorotetrahydro-1H-pyrrolizin-7a(5H)-yl)methoxy)pyrido[2,3-d]pyrimidin-7-yl)-5-ethynyl-6-fluoronaphthalen-2-ol]	≤ 50	≤ 50
CCc1c(F)ccc2cc(O)cc(-c3nc4nc(OC[C@@]56CCCN5C[C@H](F)C6)nc(N5C[C@H]6CC[C@@H](C5)N6)c4cc3F)c12 [Compound 59, 4-(4-((1R,5S)-3,8-diazabicyclo[3.2.1]octan-3-yl)-6-fluoro-2-(((2R,7aS)-2-fluorotetrahydro-1H-pyrrolizin-7a(5H)-yl)methoxy)pyrido[2,3-d]pyrimidin-7-yl)-5-ethyl-6-fluoronaphthalen-2-ol]		≤ 50

More lines, now with the values ahead:

IC50 (KRAS-G2D/SOS1) [nM]	IC50 [1] [nM]	Structure (SMILES)
> 500	> 2000	C[C@@H]1CNCCN1c1nc(OC[C@@H]2CCCN2C)nc2nc(-c3c(O)cccc3F)c(F)cc12 [Compound 7, 3-fluoro-2-(6-fluoro-4-((R)-2-methylpiperazin-1-yl)-2-(((S)-1-methylpyrrolidin-2-yl)methoxy)pyrido [2,3-d]pyrimidin-7-yl)phenol]
50 to 500	50 to 500	C[C@@H]1CNCCN1c1nc(OC[C@@H]2CCCN2C)nc2nc(-c3cccc4cccc(F)c34)c(F)cc12 [Compound 33, 6-fluoro-7-(8-fluoronaphthalen-1-y1)-4-((R)-2-methylpiperazin-1-y1)-2-(((S)-1-methylpyrrolidin-2-yl)methoxy)pyrido [2,3-d]pyrimidine]
50 to 500	500 to 2000	C[C@@H]1CNCCN1c1nc(OC[C@@H]2CCCN2C)nc2nc(-c3cccc4cccc(Cl)c34)c(F)cc12 [Compound 34, 7-(8-chloronaphthalen-1-yl)-6-fluoro-4-((R)-2-methylpiperazin-1-yl)-2-(((S)-1-methylpyrrolidin-2-yl)methoxy)pyrido [2,3-d]pyrimidine]
≤ 50	> 2000	C[C@@H]1CNCCN1c1nc(OC[C@@H]2CCCN2C)nc2nc(-c3cc(O)cc4ccccc34)c(F)cc12 [Compound 36, 4-(6-fluoro-4-((R)-2-methylpiperazin-1-yl)-2-(((S)-1-methylpyrrolidin-2-yl)methoxy)pyrido [2,3-d]pyrimidin-7-yl)naphthalen-2-ol]
≤ 50	50 to 500	C[C@@H]1CNCCN1c1nc(OC[C@@H]2CCCN2C)nc2nc(-c3cc(O)cc4cccc(Cl)c34)c(F)cc12 [Compound 45, 5-chloro-4-(6-fluoro-4-((R)-2-methylpiperazin-1-yl)-2-(((S)-1-methylpyrrolidin-2-yl)methoxy)pyrido [2,3-d]pyrimidin-7-yl)naphthalen-2-ol]
≤ 50	≤ 50	C[C@@H]1CNCCN1c1nc(OC[C@@H]2CCCN2C)nc2nc(-c3cc(O)cc4cccc(F)c34)c(F)cc12 [Compound 46, 5-fluoro-4-(6-fluoro-4-((R)-2-methylpiperazin-1-yl)-2-(((S)-1-methylpyrrolidin-2-yl)methoxy)pyrido [2,3-d]pyrimidin-7-yl)naphthalen-2-ol]
